In the experiment the target is protein kinase C. Description: enzyme assay of protein kinase C activated with phosphatidylserine and diacylglycerol (according to EP-OS 0,255,126). The class given is biochemical. The conditions noted are these: read-out: 50% inhibition at a concentration of. As to the method: The compounds according to the invention are potent inhibitors of protein kinases, such as protein kinase C. […] The experiment was carried out according to EP-OS 0,255,126 (inhibition of protein kinase C). Admittedly, indolocarbazoles have already been described as inhibitors of protein kinase C (J Antibiotic 30:275, 1977; Biochem Biophys Res Commun 135:397, 1986). However, it is thereby mainly a question of indolocarbazole-N,N-glycosidesof microbial or semisynthetic origin.

For the substance “2 (and 10)-Chloro-12-ethyl-6,7,12,13-tetrahydro-5-oxo-5H-indolo[2,3-a]pyrrolo[3,4-c]carbazole [Example 3.a]”, the IC50 was found to be 0.31 µM.

Source of the values: US5438050A, “Indolocarbazole derivatives, processes for their preparation and compositions containing them” (Godecke Aktiengesellschaft, priority 1988, dated 1995).
